Source: the supplement of paper PMC10307832

Tests used:
Experiment in all cases: relative viability (nuclei count vs DMSO), 5 days (fraction); higher = more cells survive
Everolimus + Foretinib = compound: CO[C@H]1C[C@@H]2CC[C@@H](C)[C@@](O)(O2)C(=O)C(=O)N2CCCC[C@H]2C(=O)O[C@H]([C@H](C)C[C@@H]2CC[C@@H](OCCO)[C@H](OC)C2)CC(=O)[C@H](C)/C=C(\C)[C@@H](O)[C@@H](OC)C(=O)[C@H](C)C[C@H](C)/C=C/C=C/C=C/1C [Everolimus] + COc1cc2c(Oc3ccc(NC(=O)C4(C(=O)Nc5ccc(F)cc5)CC4)cc3F)ccnc2cc1OCCCN1CCOCC1 [Foretinib] (partner 0.25 µM)
Outline: (§1)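 Relative viability equals treated-well nuclei counts divided by vehicle-well nuclei counts. Counts came from 4× images of lung cancer cell lines grown in 1536-well plates for 5 days after pin-tool dosing on the day after seeding. Dosing used one drug alone or a fixed anchor-drug dose plus five library-drug doses (not always all listed) in √10 steps, and values are medians of duplicate plates.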

Everolimus + Alpelisib = compound: CO[C@H]1C[C@@H]2CC[C@@H](C)[C@@](O)(O2)C(=O)C(=O)N2CCCC[C@H]2C(=O)O[C@H]([C@H](C)C[C@@H]2CC[C@@H](OCCO)[C@H](OC)C2)CC(=O)[C@H](C)/C=C(\C)[C@@H](O)[C@@H](OC)C(=O)[C@H](C)C[C@H](C)/C=C/C=C/C=C/1C [Everolimus] + Cc1nc(NC(=O)N2CCC[C@H]2C(N)=O)sc1-c1ccnc(C(C)(C)C(F)(F)F)c1 [Alpelisib] (partner 2 µM)
Outline: as §1

Everolimus + Olaparib = compound: CO[C@H]1C[C@@H]2CC[C@@H](C)[C@@](O)(O2)C(=O)C(=O)N2CCCC[C@H]2C(=O)O[C@H]([C@H](C)C[C@@H]2CC[C@@H](OCCO)[C@H](OC)C2)CC(=O)[C@H](C)/C=C(\C)[C@@H](O)[C@@H](OC)C(=O)[C@H](C)C[C@H](C)/C=C/C=C/C=C/1C [Everolimus] + O=C(c1cc(Cc2n[nH]c(=O)c3ccccc23)ccc1F)N1CCN(C(=O)C2CC2)CC1 [Olaparib] (partner 8 µM)
Outline: as §1

Everolimus + Pemetrexed = compound: CO[C@H]1C[C@@H]2CC[C@@H](C)[C@@](O)(O2)C(=O)C(=O)N2CCCC[C@H]2C(=O)O[C@H]([C@H](C)C[C@@H]2CC[C@@H](OCCO)[C@H](OC)C2)CC(=O)[C@H](C)/C=C(\C)[C@@H](O)[C@@H](OC)C(=O)[C@H](C)C[C@H](C)/C=C/C=C/C=C/1C [Everolimus] + Nc1nc2[nH]cc(CCc3ccc(C(=O)N[C@@H](CCC(=O)O)C(=O)O)cc3)c2c(=O)[nH]1 [Pemetrexed] (partner 0.2 µM)
Outline: as §1

Cell Line | relative viability (Everolimus + Foretinib; first compound 0.01 µM) | relative viability (Everolimus + Foretinib; first compound 0.03162 µM) | relative viability (Everolimus + Foretinib; first compound 0.1 µM) | relative viability (Everolimus + Foretinib; first compound 0.3162 µM) | relative viability (Everolimus + Foretinib; first compound 1 µM) | relative viability (Everolimus + Alpelisib; first compound 0.01 µM) | relative viability (Everolimus + Alpelisib; first compound 0.03162 µM) | relative viability (Everolimus + Alpelisib; first compound 0.1 µM) | relative viability (Everolimus + Alpelisib; first compound 0.3162 µM) | relative viability (Everolimus + Alpelisib; first compound 1 µM) | relative viability (Everolimus + Olaparib; first compound 0.01 µM) | relative viability (Everolimus + Olaparib; first compound 0.03162 µM) | relative viability (Everolimus + Olaparib; first compound 0.1 µM) | relative viability (Everolimus + Olaparib; first compound 0.3162 µM) | relative viability (Everolimus + Olaparib; first compound 1 µM) | relative viability (Everolimus + Pemetrexed; first compound 0.01 µM) | relative viability (Everolimus + Pemetrexed; first compound 0.03162 µM) | relative viability (Everolimus + Pemetrexed; first compound 0.1 µM) | relative viability (Everolimus + Pemetrexed; first compound 0.3162 µM) | relative viability (Everolimus + Pemetrexed; first compound 1 µM)
NCI-H1703 | 0.347 | 0.406 | 0.361 | 0.338 | 0.328 | 0.213 | 0.22 | 0.29 | 0.239 | 0.338 | 0.36 | 0.218 | 0.333 | 0.233 | 0.337 |  |  |  |  | 
NCI-H1755 | 0.791 | 0.751 | 0.653 | 0.822 | 0.632 | 0.646 | 0.659 | 0.653 | 0.643 | 0.611 | 0.764 | 0.592 | 0.697 | 0.556 | 0.588 | 0.468 | 0.484 | 0.512 | 0.438 | 0.448
NCI-H2087 | 0.704 | 0.662 | 0.739 | 0.875 | 0.713 | 0.796 | 0.897 | 0.839 | 0.663 | 0.657 | 0.491 | 0.444 | 0.524 | 0.465 | 0.508 | 0.587 | 0.636 | 0.612 | 0.608 | 0.626
NCI-H2228 | 0.603 | 0.586 | 0.575 | 0.413 | 0.556 | 0.463 | 0.431 | 0.418 | 0.385 | 0.266 | 0.658 | 0.289 | 0.336 | 0.266 | 0.311 | 0.252 | 0.313 | 0.312 | 0.285 | 0.243
NCI-H727 | 0.67 | 0.569 | 0.611 | 0.603 | 0.425 | 0.399 | 0.328 | 0.266 | 0.308 | 0.364 | 0.719 | 0.673 | 0.569 | 0.524 | 0.755 |  |  |  |  | 
EBC-1 | 0.109 | 0.108 | 0.103 | 0.133 | 0.0957 | 0.278 | 0.348 | 0.284 | 0.33 | 0.279 | 0.505 | 0.324 | 0.31 | 0.349 | 0.334 |  |  |  |  | 
NCI-H1299 | 1.06 | 1.21 | 0.634 | 1.07 | 1.05 | 1.04 | 1.09 | 1.01 | 1.06 | 1.06 | 0.953 | 0.987 | 0.994 | 1.04 | 0.841 |  |  |  |  | 
Calu-6 | 0.845 | 0.785 | 0.811 | 0.77 | 0.742 | 0.65 | 0.604 | 0.593 | 0.608 | 0.614 | 0.624 | 0.68 | 0.646 | 0.552 | 0.705 |  |  |  |  | 
SW 900 | 0.685 | 0.477 | 0.748 | 0.525 | 0.508 |  |  |  |  |  | 0.801 | 0.744 | 0.814 | 0.656 | 0.649 | 0.391 | 0.432 | 0.482 | 0.431 | 0.421
A549 | 0.688 | 0.421 | 0.306 | 0.393 | 0.435 | 0.328 | 0.292 | 0.272 | 0.323 | 0.204 | 0.204 | 0.234 | 0.232 | 0.237 | 0.215 |  |  |  |  | 
NCI-H1650 | 0.827 | 0.928 | 0.973 | 0.966 | 1.01 |  |  |  |  |  | 0.893 | 0.934 | 0.791 | 0.834 | 0.849 | 0.451 | 0.359 | 0.325 | 0.442 | 0.414
NCI-H522 |  |  |  |  |  |  |  |  |  |  | 0.609 | 0.474 | 0.429 | 0.448 | 0.438 | 0.735 | 0.79 | 0.521 | 0.548 | 0.732
IA-LM | 0.927 | 0.547 | 0.476 | 0.595 | 0.42 | 0.185 | 0.334 | 0.27 | 0.149 | 0.288 | 0.759 | 0.613 | 0.603 | 0.741 | 0.665 |  |  |  |  | 
NCI-H1563 | 0.721 | 0.768 | 0.685 | 0.712 | 0.562 | 0.715 | 0.717 | 0.662 | 0.641 | 0.685 |  |  |  |  |  | 0.715 | 0.572 | 0.618 | 0.576 | 0.546
HCC-44 |  |  |  |  |  | 0.616 | 0.597 | 0.44 | 0.511 | 0.44 | 1 | 1.17 | 1.07 | 1.06 | 1.03 | 0.769 | 0.802 | 0.675 | 0.705 | 0.727
NCI-H1648 |  |  |  |  |  |  |  |  |  |  | 0.577 | 0.473 | 0.613 | 0.597 | 0.482 | 0.544 | 0.538 | 0.659 | 0.629 | 0.742
ABC-1 | 0.82 | 0.826 | 0.645 | 0.699 | 0.739 | 0.682 | 0.617 | 0.636 | 0.678 | 0.539 | 1.17 |  | 1 |  | 0.749 |  |  |  |  | 
NCI-H2342 | 0.924 | 0.654 | 0.551 | 0.618 | 0.681 |  |  |  |  |  | 0.385 | 0.363 | 0.304 | 0.333 | 0.36 | 0.559 | 0.478 | 0.446 | 0.584 | 0.477
NCI-H1792 |  |  |  |  |  | 0.618 | 0.5 | 0.312 | 0.222 | 0.212 | 0.21 | 0.155 | 0.167 | 0.113 | 0.119 | 0.335 | 0.245 | 0.318 | 0.315 | 0.183
